Source: ChEMBL document CHEMBL1201862, “PubChem BioAssay data set” (2004)
Structures can show the parent of a compound that is named as a salt. The source made the active and inactive calls.

Experiments:
[1] = M. tuberculosis growth inhibition, HTS (AID 449762); assay type: functional
[2] = Luminescence Cell-Based Dose Response HTS to Identify Inhibitors of 5'UTR Stem-Loop Driven Prion Protein mRNA Translation in H4 Neuroglioblastoma Cells. [Related pubchem assays: 1827 (Project Summary), 1813 (Primary HTS)]; assay type: functional
[3] = luciferase reporter signal suppression in cells – H4 neuroglioma cells, luminescence, dose response (AID 1990); assay type: functional, cell-based
[4] = alpha-synuclein stem-loop luciferase translation blockers – H4 neuroglioma cells, luminescence, confirmation (AID 1988); assay type: functional, cell-based
[5] = Trypanosoma cruzi growth suppression in host cells – NIH3T3 host cells, beta-gal luminescence, confirmation (AID 2044); assay type: functional, cell-based;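 note: intracellular parasites grown in NIH/3T3 mouse fibroblasts as host cells; luminescent beta-galactosidase reporter signal from transgenic T. cruzi replicating inside host cells; inhibitors lower the luminescence signal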
[6] = NIH3T3 cell viability loss – ATP luminescence, mouse fibroblasts, counter-screen, dose response (AID 2010); assay type: functional, cell-based;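 note: cells exposed to compound for about 90 hours before reading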
[7] = cells
[8] = NIH-3T3 fibroblast cytotoxicity, dose response, cytotoxicity control, cell-based, fluorescence, Alamar Blue, secondary assay (AID 2327); assay type: functional;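 note: NIH-3T3 mouse fibroblasts cultured with fluconazole at 8 µg/mL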
[9] = fluconazole-exposed Candida albicans growth modulators – fluorescence, retest, confirmation (AID 2467); assay type: functional, cell-based
[10] = HIV-1 Vif–A3G interaction blockers – biochemical, TR-FRET, GST-Vif 1-94, biotin-A3G peptide, dose response retest, primary screen (AID 1117319); assay type: functional;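 note: TR-FRET signal of purified GST-Vif binding a biotinylated A3G peptide; inhibitors lower the FRET signal by blocking Vif and A3G binding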
[11] = target: T1, Mannose-6-phosphate isomerase (Homo sapiens, UniProt P34949); test: MPI enzyme activity inhibition – biochemical, fluorescence intensity, coupled assay, primary screen (AID 1209)
T1 sequence (P34949 whole entry): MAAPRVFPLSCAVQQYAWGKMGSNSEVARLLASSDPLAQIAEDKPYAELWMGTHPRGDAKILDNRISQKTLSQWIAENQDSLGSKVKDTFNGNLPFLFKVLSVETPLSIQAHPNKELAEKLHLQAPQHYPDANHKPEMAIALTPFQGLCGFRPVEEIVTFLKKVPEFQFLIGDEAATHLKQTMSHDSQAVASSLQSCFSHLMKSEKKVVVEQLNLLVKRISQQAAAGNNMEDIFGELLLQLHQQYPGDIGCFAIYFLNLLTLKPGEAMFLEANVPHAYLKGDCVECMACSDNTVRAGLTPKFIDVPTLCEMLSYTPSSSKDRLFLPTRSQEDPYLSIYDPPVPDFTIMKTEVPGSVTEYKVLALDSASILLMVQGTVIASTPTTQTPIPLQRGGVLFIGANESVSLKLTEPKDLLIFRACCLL

[12] = viability loss of HPDE-C7K cells – cell-based, fluorescence, HTS, primary screen (AID 431); assay type: functional; conditions: Homo sapiens
[13] = HEK-293T viability loss after treatment – luminescence, T-cell screen hits, cytotoxicity control for TCR NF-kB inhibitor project, dose response (AID 489026); assay type: functional, cell-based;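 note: cells exposed to compound about 14 hours before the viability readout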
[14] = target: Beta-galactosidase (Escherichia coli, UniProt Q8VNN2); test: PubChem AID 485352; assay type: functional
Chain of Beta-galactosidase (Q8VNN2 whole entry): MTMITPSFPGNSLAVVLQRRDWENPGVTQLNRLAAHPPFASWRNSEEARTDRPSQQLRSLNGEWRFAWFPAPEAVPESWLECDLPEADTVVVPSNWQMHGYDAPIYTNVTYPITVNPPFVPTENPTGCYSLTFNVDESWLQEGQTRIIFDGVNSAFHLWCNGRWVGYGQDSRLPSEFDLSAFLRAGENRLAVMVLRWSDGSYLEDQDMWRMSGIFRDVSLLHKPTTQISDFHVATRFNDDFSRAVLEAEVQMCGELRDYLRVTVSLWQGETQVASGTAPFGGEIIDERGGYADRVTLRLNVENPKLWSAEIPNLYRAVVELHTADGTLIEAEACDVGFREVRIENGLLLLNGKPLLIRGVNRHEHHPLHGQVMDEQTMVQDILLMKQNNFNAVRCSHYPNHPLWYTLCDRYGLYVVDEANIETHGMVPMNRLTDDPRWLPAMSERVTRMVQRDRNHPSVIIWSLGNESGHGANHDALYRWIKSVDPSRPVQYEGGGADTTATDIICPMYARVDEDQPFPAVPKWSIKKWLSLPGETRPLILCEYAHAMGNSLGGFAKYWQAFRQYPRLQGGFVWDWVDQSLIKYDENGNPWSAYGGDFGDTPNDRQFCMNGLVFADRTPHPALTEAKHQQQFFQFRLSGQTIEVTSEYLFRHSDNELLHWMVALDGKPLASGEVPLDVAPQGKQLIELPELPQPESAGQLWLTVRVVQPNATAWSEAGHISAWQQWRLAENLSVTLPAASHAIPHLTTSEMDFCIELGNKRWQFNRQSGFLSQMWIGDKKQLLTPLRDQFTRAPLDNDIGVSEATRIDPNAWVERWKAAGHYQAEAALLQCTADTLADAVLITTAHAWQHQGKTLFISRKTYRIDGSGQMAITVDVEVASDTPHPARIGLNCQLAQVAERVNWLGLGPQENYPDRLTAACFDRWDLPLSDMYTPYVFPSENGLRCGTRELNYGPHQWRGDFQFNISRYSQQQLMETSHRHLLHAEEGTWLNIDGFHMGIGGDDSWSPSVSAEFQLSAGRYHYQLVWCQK

[15] = target: T2, Type-1 angiotensin II receptor (Homo sapiens, UniProt P30556); test: antagonism of angiotensin II type 1 receptor – cell-based, uHTS hits, selectivity assay for APJ receptor antagonist project, dose response (AID 463214); assay type: functional;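 note: antagonist potency against angiotensin II stimulated AT1 response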
T2 sequence (P30556 whole entry): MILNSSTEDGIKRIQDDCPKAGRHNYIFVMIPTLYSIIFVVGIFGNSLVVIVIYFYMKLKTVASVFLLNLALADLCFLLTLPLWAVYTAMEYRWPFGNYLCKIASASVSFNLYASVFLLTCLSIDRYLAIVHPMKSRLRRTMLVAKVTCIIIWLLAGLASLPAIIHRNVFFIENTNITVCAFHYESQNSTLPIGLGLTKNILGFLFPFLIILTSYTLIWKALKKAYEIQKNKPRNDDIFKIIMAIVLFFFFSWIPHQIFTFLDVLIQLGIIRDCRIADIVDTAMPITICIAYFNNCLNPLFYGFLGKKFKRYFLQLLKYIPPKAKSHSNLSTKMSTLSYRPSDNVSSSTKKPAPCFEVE

[16] = HPDE-C7 pancreatic duct cell viability loss – fluorescence, HTS (AID 430); assay type: functional, cell-based; conditions: Homo sapiens
[17] = target: T3, Rac GTPase-activating protein 1 (Homo sapiens, UniProt Q9H0H5); test: blockers of MgcRacGAP-driven Rac1 GTP hydrolysis – biochemical, ADP Hunter fluorescence, primary and confirmatory, confirmation (AID 624330); assay type: functional
T3 sequence (Q9H0H5 whole entry): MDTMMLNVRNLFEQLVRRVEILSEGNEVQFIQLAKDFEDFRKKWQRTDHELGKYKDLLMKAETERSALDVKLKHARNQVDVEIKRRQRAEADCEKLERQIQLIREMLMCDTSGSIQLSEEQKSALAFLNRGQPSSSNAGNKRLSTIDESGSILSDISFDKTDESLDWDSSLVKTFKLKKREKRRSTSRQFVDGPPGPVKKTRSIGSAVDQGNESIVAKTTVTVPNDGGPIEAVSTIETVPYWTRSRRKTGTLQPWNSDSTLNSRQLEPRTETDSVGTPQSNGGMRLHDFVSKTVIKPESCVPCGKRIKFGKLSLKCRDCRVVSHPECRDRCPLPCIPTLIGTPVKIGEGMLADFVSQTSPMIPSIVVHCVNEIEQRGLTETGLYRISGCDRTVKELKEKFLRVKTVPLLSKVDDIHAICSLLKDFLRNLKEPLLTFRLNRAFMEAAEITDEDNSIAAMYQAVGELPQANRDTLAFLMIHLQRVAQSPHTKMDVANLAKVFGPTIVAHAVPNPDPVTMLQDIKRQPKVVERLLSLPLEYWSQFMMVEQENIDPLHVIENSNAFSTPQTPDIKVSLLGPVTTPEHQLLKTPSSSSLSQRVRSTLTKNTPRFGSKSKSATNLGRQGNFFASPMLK

[18] = Luminescent dose response cell-based high throughput screening assay for inhibitors of the Janus kinase 2 mutant JAK2V617F. [Related pubchem assays: 1446 (Primary screen.), 1521 (Confirmation assay.), 1486 (Counter screen.)]; assay type: functional
[19] = target: Cytochrome P450 2C19 (Homo sapiens, UniProt P33261); test: Cytochrome panel assay with activity outcomes. Panel member name: p450-cyp2c19 Compounds with AC50 equal or less than 10 uM are considered active; assay type: functional; conditions: read-out: AC50
Chain of Cytochrome P450 2C19 (P33261 whole entry): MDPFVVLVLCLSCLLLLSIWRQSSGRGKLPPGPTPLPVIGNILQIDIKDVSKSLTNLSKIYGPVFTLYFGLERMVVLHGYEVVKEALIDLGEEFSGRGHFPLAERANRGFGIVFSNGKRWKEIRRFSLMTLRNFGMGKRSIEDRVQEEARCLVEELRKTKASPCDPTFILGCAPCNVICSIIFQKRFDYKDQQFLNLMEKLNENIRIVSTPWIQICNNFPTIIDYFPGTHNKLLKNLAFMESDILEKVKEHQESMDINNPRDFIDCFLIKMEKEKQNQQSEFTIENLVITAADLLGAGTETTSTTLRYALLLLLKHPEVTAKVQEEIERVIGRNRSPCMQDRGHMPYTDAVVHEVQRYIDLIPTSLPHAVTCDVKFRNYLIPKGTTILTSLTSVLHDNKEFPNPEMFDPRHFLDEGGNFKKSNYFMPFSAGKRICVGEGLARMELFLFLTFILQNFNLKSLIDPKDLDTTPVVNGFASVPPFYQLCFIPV

[20] = target: Cytochrome P450 2C9 (Homo sapiens, UniProt P11712)
Chain of Cytochrome P450 2C9 (P11712 whole entry): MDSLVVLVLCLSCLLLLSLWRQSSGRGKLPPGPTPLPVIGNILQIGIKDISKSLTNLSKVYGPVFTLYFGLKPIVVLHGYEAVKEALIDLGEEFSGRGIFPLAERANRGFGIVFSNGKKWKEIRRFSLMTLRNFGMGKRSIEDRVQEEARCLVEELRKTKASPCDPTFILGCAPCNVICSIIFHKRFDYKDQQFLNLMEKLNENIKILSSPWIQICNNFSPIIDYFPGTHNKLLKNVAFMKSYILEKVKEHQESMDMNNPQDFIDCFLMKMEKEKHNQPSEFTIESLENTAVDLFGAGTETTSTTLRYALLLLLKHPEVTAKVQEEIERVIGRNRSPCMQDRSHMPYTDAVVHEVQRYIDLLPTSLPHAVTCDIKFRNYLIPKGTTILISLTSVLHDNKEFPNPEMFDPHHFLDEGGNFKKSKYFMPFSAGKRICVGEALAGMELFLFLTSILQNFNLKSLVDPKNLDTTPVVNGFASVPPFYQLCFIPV

[21] = target: Ephrin type-A receptor 4 (Mus musculus, UniProt Q03137); test: EphA4 ligand-binding antagonists – biochemical, colorimetric, mouse EphA4, primary screen (AID 689); assay type: functional
Chain of Ephrin type-A receptor 4 (Q03137 whole entry): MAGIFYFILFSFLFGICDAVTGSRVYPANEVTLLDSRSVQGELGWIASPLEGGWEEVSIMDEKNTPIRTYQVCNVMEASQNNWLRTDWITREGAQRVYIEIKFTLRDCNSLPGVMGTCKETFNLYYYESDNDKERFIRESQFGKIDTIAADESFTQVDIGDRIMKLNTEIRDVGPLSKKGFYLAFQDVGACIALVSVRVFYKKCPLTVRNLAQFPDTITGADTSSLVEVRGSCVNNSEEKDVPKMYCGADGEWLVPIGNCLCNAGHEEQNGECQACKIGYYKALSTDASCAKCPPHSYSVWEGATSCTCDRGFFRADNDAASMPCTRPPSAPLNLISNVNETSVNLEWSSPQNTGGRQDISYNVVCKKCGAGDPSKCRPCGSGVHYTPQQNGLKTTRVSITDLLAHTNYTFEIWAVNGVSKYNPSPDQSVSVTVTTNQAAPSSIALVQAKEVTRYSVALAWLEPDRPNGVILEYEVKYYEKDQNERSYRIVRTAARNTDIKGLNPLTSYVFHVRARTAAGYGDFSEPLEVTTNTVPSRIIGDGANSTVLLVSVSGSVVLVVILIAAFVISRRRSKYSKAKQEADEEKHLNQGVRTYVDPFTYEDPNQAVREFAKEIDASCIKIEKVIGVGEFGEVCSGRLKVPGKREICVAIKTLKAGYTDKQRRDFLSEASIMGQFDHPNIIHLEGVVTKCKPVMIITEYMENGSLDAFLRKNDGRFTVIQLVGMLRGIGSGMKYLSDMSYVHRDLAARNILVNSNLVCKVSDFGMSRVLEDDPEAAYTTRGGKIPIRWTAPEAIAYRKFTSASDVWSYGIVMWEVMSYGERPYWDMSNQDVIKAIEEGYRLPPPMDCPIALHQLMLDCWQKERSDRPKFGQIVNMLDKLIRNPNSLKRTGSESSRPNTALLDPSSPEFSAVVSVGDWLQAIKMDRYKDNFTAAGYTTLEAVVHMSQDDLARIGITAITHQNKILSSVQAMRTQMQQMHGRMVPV

[22] = target: Cytochrome P450 3A4 (Homo sapiens, UniProt P08684);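 note: CYP3A4 tested as one member of a cytochrome P450 panel screen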
Chain of Cytochrome P450 3A4 (P08684 whole entry): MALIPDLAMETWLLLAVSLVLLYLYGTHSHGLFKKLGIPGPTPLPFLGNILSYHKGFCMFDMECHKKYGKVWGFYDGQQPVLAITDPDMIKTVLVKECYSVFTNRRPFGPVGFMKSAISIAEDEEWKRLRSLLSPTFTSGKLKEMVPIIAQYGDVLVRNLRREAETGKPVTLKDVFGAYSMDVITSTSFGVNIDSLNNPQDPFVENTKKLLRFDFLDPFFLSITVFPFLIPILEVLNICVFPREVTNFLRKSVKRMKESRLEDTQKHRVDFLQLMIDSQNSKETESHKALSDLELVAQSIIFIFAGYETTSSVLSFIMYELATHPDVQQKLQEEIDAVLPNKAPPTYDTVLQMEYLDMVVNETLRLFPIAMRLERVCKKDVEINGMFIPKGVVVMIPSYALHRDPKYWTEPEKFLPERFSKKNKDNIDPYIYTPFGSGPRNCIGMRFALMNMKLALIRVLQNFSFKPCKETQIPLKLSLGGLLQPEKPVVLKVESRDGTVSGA

[23] = target: T4, Ubiquitin-conjugating enzyme E2 N (Homo sapiens, UniProt P61088); assay type: functional;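 note: Dose-response confirmation in a TR-FRET assay detecting UBC13-driven polyubiquitin chain formation, inhibition measured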
T4 sequence (P61088 whole entry): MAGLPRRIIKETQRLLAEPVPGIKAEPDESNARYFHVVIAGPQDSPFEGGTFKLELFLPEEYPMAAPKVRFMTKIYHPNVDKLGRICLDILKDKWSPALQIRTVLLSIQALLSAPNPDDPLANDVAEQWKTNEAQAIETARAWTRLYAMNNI

Cn1ccnc1C(O)c1cc(C(C)(C)C)c(O)c(C(C)(C)C)c1 (stereo not drawn)
IC50 [1]: > 100 µM (active)

CCOc1ccc(-c2cc(C)[n+](CCN(CC)CC)c(-c3ccc(OCC)cc3)c2)cc1.[O-][Cl+3]([O-])([O-])[O-]
EC50 [2]: 14.6 µM (active) | EC50 [3]: 10.2 µM (active) | EC50 [4]: 8.8 µM (active) | EC50 [5]: < 0.1 µM (active) | EC50 [6]: > 60 µM (not active) | EC50 [7]: 0.089 µM (active) | EC50 [8]: 98.5 µM (active) | EC50 [9]: 0.258 µM (active)

CC(=O)c1ccc(S(=O)(=O)Nc2cccc(-c3ccc(N4CCOCC4)nn3)c2)cc1
IC50 [10]: > 100 µM (active)

CCOC(=O)c1ccc(N2C(=O)CC(SCC(=O)Nc3ccc(S(N)(=O)=O)cc3)C2=O)cc1 (stereo not drawn)
IC50 [11]: 28.1 µM (active)

COc1ccc(N2CN=C3SCC(=O)N3C2)cc1
IC50 [1]: > 100 µM (active)

CCOC(=O)/C=C/S(=O)(=O)c1ccc(NC(C)=O)cc1
EC50 [12]: 10.4 µM (active) | IC50 [13]: > 80 µM (inactive) | EC50 [14]: > 40 µM (inactive) | IC50 [15]: 9.22 µM (active) | EC50 [16]: 8.93 µM (active)

Oc1ccc(Cl)cc1/N=C/c1sc2ccccc2c1Cl
IC50 [17]: 20.4 µM (active) | IC50 [18]: 1.15 µM (active)

CCOC(=O)C1=C(c2ccccc2)N=c2s/c(=C\c3cc(OC)c(OC)c(OC)c3)c(=O)n2C1c1cccs1 (stereo not drawn)
AC50 [19]: 0.631 µM (inconclusive) | AC50 [20]: 1.26 µM (inconclusive) | EC50 [5]: 1.29 µM (active) | IC50 [21]: 1.49 µM (active) | EC50 [6]: > 60 µM (not active) | AC50 [22]: 7.08 µM (inconclusive)

CNCCC(Oc1ccc(C(F)(F)F)cc1)c1ccccc1 (stereo not drawn) [FLUOXETINE HYDROCHLORIDE]
EC50 [12]: > 20 µM (not active) | IC50 [23]: > 20 µM (inactive) | EC50 [16]: > 20 µM (not active)
